Source: patent US9376420B2 (YUHAN CORPORATION, priority 2012, dated 2016)
pEC50: −log10 of the molar value.

Biological target: T1, human LXRβ (Homo sapiens, UniProt P55055)
T1 construct: expressed in transfected cells; host or cells: HEK293 cells (ATCC CRL-1573), transient transfection with pFA-hLXRβ/GAL4 and pUAS
T1 sequence (P55055 222-460 limits assumed): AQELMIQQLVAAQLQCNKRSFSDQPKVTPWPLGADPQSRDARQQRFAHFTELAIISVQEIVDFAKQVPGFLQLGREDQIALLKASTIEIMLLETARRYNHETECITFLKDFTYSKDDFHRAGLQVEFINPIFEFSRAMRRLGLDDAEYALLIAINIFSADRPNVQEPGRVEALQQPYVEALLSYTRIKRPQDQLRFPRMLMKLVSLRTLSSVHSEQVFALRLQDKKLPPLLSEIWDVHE
Assay: Assay for Transcriptional Activity of LXRβ (GAL4-hLXRβ LBD luciferase reporter, transient transfection)
Assay type: cell-based
Settings: HEK293 cells transfected with pFA-hLXRβ/GAL4 and pUAS, 24 hours; for Emax: fold value in comparison with the control (DMSO-treated group); for pEC50: increase of transcriptional activity of LXRβ, average of three independent tests
Description: The ligand-binding domain (LBD) cDNA of human LXRβ was inserted into an expression vector (pFA, Stratagene, USA) site adjacent to the yeast GAL4 transcription factor DNA binding domain to prepare an expression construct (pFA-hLXRβ/GAL4) (Willey et al., Genes & Development 9 1033-1045 (1995). The GAL4-responsive luciferase reporter plasmid, i.e., pUAS (Stratagene, USA), contained five copies of the GAL4 response element placed adjacent to the promoter and the luciferase reporter gene. The pFA-hLXRβ/GAL4 and pUAS were introduced into mammalian cells through transient transfection, followed by measuring the transcriptional activity of LXRβ.
HEK293 cells (human kidney cells, sATCC, CRL-1573) were incubated at a T-75 flask containing a DMEM supplemented with 10% fetal bovine serum (FBS) in a 37° C., until they reach about 70˜80% confluency. The culture media containing the cells was added to each well of a 96-well plate in a density of 5×10^4 cells per well. The pFA-hLXRβ/GAL4 and pUAS was transfected to the cells using a cationic-lipid transfection reagent (Lipofectamine™, Invitrogen), through culturing at 37° C. for 3 hours for transient transfection according to the manufacturer's instruction. The test compounds were dissolved in dimethyl sulfoxide (DMSO) in the concentrations of 50, 30, 10, 3, 1, 0.3, 0.1, 0.03, and 0.01 μM and then cells were treated with the prepared compound-containing solution (100 μl). The cells were incubated at 37° C. for 24 hours. After removal of the medium from each well, the lysis buffer (25 mM Tricine pH7.8, 2 mM DTT, 2 mM EGTA, 10% glycerol, 1% Triton X-100) was added with the amount of 20 μl per each well, and the plate was stirred at room temperature for 15 minutes. The luciferase reagent (prepared by adding 10 ml of the luciferase buffer (Promega) to 1 vial of the luciferase substrate (Promega)) was added to each well with the amount of 100 μl per well, followed by assaying with a luminometer according to the manufacturer's instruction.
The dose-response curve for calculating the EC50 values of the test compounds on the increase of transcriptional activity of LXRβ was prepared using the known LXR agonist (i.e., N-(2,2,2-trifluoro-ethyl)-N-[4-(2,2,2-trifluoro-1-hydroxy-1-trifluoromethyl-ethyl)-phenyl]-benzenesulfonamide) as a positive control and the vehicle (DMSO) as a negative control. The dose-response curve was produced from the 9-point curve having different concentrations at a 1/2 log unit. The EC50 value of a test compound, which is defined as a concentration for initiating the reaction corresponding to the half value between the Top value (i.e., the maximum value) and the Bottom value (baseline), was calculated according to the following equation. Y=Bottom+(Top-Bottom)/(1+10^((log EC50-X)*Hill Slope)).
In the above equation, Y is the observed value; X is the log concentration; Hill Slope is the slope of the curve; and Top and Bottom are the maximum value of test compound and the baseline value, respectively.
The following tables 1 and 2 show the EC50 values of the test compounds measured as in the above. In the tables 1 and 2, each EC50 value represents an average value obtained from three independent tests.

Row | Compound | Emax [fold] | pEC50
1 | CC(O)c1ccc(-c2cccc(C3CC(C(F)(F)C(F)(F)F)=NN3c3ccccc3Cl)c2)cc1 (stereo not drawn) [Example 108, 1-(2-chloro-phenyl)-5-[4′-(1-hydroxy-ethyl)-biphenyl-3-yl]-3-pentafluoroethyl-4,5-dihydro-1H-pyrazole] | 44 | 6.00
2 | Oc1cccc(-c2cccc(C3CC(C(F)(F)C(F)(F)F)=NN3c3ccccc3Cl)c2)c1 (stereo not drawn) [Example 111, 1-(2-chloro-phenyl)-5-(3′-hydroxy-biphenyl-3-yl)-3-pentafluoroethyl-4,5-dihydro-1H-pyrazole] | 41 | 5.38
3 | COc1ccc(-c2cccc(C3CC(C(F)(F)C(F)(F)F)=NN3c3ccccc3Cl)c2)cc1OC (stereo not drawn) [Example 112, 1-(2-chloro-phenyl)-5-(3′,4′-dimethoxy-biphenyl-3-yl)-3-pentafluoroethyl-4,5-dihydro-1H-pyrazole] | 57 | 5.07
4 | CS(=O)(=O)c1ccc(-c2cc(C3CC(C(F)(F)C(F)(F)F)=NN3c3ccc(F)cc3F)ccc2F)cc1 (stereo not drawn) [Example 129, 1-(2,4-difluoro-phenyl)-5-(6-fluoro-4′-methanesulfonyl-biphenyl-3-yl)-3-pentafluoroethyl-4,5-dihydro-1H-pyrazole] | 44 | 5.10
5 | Fc1ccc(N2N=C(C(F)(F)C(F)(F)F)CC2c2ccc(F)c(-c3ccc(Cl)nc3)c2)c(F)c1 (stereo not drawn) [Example 130, 1-(2,4-difluoro-phenyl)-5-[4-fluoro-3-(6-chloro-pyridin-3-yl)-phenyl]-3-pentafluoroethyl-4,5-dihydro-1H-pyrazole] | 34 | 4.99
6 | COc1ccc(-c2cc(C3CC(C(F)(F)C(F)(F)F)=NN3c3ccc(F)cc3F)ccc2F)cn1 (stereo not drawn) [Example 131, 1-(2,4-difluoro-phenyl)-5-[4-fluoro-3-(6-methoxy-pyridin-3-yl)-phenyl]-3-pentafluoroethyl-4,5-dihydro-1H-pyrazole] | 45 | 4.89
7 | CSc1cccc(-c2ccc(F)c(C3CC(C(F)(F)C(F)(F)F)=NN3c3ccc(F)cc3F)c2)c1 (stereo not drawn) [Example 138, 1-(2,4-difluoro-phenyl)-5-(4-fluoro-3′-(methylsulfanyl)biphenyl-3-yl)-3-pentafluoroethyl-4,5-dihydro-1H-pyrazole] | 153 | 6.30
8 | CSc1ccc(-c2ccc(F)c(C3CC(C(F)(F)C(F)(F)F)=NN3c3ccc(F)cc3F)c2)cn1 (stereo not drawn) [Example 140, 1-(2,4-difluoro-phenyl)-5-[6-fluoro-3-(6-methylsulfanyl-pyridin-3-yl)-phenyl]-3-pentafluoroethyl-4,5-dihydro-1H-pyrazole] | 143 | 5.75
9 | CS(=O)(=O)c1ccc(-c2ccc(F)c(C3CC(C(F)(F)C(F)(F)F)=NN3c3ccc(F)cc3F)c2)cn1 (stereo not drawn) [Example 142, 1-(2,4-difluoro-phenyl)-5-[6-fluoro-3-(6-methanesulfonyl-pyridin-3-yl)-phenyl]-3-pentafluoroethyl-4,5-dihydro-1H-pyrazole] | 73 | 6.74
10 | CS(=O)(=O)N1CCN(c2ccc(F)c(C3CC(C(F)(F)C(F)(F)F)=NN3c3ccc(F)cc3F)c2)CC1 (stereo not drawn) [Example 145, 1-(2,4-difluoro)-5-[2-fluoro-5-(4-methanesulfonyl-piperazin-1-yl)-phenyl]-3-pentafluoroethyl-4,5-dihydro-1H-pyrazole] | 107 | 6.05
11 | O=S(=O)(C1CC1)N1CCN(c2ccc(F)c(C3CC(C(F)(F)C(F)(F)F)=NN3c3ccc(F)cc3F)c2)CC1 (stereo not drawn) [Example 146, 1-(2,4-difluoro)-5-[2-fluoro-5-(4-cyclopropanesulfonyl-piperazin-1-yl)-phenyl]-3-pentafluoroethyl-4,5-dihydro-1H-pyrazole] | 105 | 6.07
12 | CS(=O)(=O)N1CC=C(c2ccc(F)c(C3CC(C(F)(F)C(F)(F)F)=NN3c3ccc(F)cc3F)c2)CC1 (stereo not drawn) [Example 149, 1-(2,4-difluoro-phenyl)-5-[2-fluoro-5-(1-methanesulfonyl-1,2,3,6-tetrahydropyridin-4-yl)-phenyl]-3-pentafluoroethyl-4,5-dihydro-1H-pyrazole] | 124 | 6.52
13 | CS(=O)(=O)c1cccc(-c2cccc(C3CC(C(F)(F)C(F)(F)F)=NN3c3ccccc3Cl)n2)c1 (stereo not drawn) [Example 157, 1-(2-chloro-phenyl)-5-[2-(3-methanesulfonyl-phenyl)-pyridin-6-yl]-3-pentafluoroethyl-4,5-dihydro-1H-pyrazole] | 96 | 6.40
14 | CS(=O)(=O)c1ccc(-c2cncc(C3CC(C(F)(F)C(F)(F)F)=NN3c3ccc(F)cc3F)c2)cc1 (stereo not drawn) [Example 162, 1-(2,4-difluoro-phenyl)-5-[3-(4-methanesulfonyl-phenyl)-pyridin-5-yl]-3-pentafluoroethyl-4,5-dihydro-1H-pyrazole] | 59 | 5.53
15 | CS(=O)(=O)c1cccc(-c2cncc(C3CC(C(F)(F)C(F)(F)F)=NN3c3ccc(F)cc3F)c2)c1 (stereo not drawn) [Example 165, 1-(2,4-difluoro-phenyl)-5-[3-(3-methanesulfonyl-phenyl)-pyridin-5-yl]-3-pentafluoroethyl-4,5-dihydro-1H-pyrazole] | 157 | 6.65
16 | CS(=O)(=O)c1ccc(-c2cncc(C3CC(C(F)(F)C(F)(F)F)=NN3c3ccc(F)cc3F)c2)cn1 (stereo not drawn) [Example 166, 1-(2,4-difluoro-phenyl)-5-[3-(6-methanesulfonyl-pyridin-3-yl)-pyridin-5-yl]-3-pentafluoroethyl-4,5-dihydro-1H-pyrazole] | 56 | 5.15
17 | O=S(=O)(C1CC1)N1CC=C(c2cncc(C3CC(C(F)(F)C(F)(F)F)=NN3c3ccc(F)cc3F)c2)CC1 (stereo not drawn) [Example 168, 1-(2,4-difluoro-phenyl)-5-[3-(1-cyclopropanesulfonyl-1,2,3,6-tetrahydropyridin-4-yl)-pyridin-5-yl]-3-pentafluoroethyl-4,5-dihydro-1H-pyrazole] | 30 | 5.21
18 | CSc1cccc(-c2ccnc(C3CC(C(F)(F)C(F)(F)F)=NN3c3ccc(F)cc3F)c2)c1 (stereo not drawn) [Example 172, 1-(2,4-difluoro-phenyl)-5-[4-(3-methylsulfanyl-phenyl)-pyridin-2-yl]-3-pentafluoroethyl-4,5-dihydro-1H-pyrazole] | 73 | 5.99
19 | CSc1ccc(-c2ccnc(C3CC(C(F)(F)C(F)(F)F)=NN3c3ccc(F)cc3F)c2)cc1 (stereo not drawn) [Example 173, 1-(2,4-difluoro-phenyl)-5-[4-(4-methylsulfanyl-phenyl)-pyridin-2-yl]-3-pentafluoroethyl-4,5-dihydro-1H-pyrazole] | 102 | 5.60
20 | CS(=O)(=O)c1ccc(-c2ccnc(C3CC(C(F)(F)C(F)(F)F)=NN3c3ccc(F)cc3F)c2)cc1 (stereo not drawn) [Example 174, 1-(2,4-difluoro-phenyl)-5-[4-(4-methanesulfonyl-phenyl)-pyridin-2-yl]-3-pentafluoroethyl-4,5-dihydro-1H-pyrazole] | 119 | 6.27
21 | CS(=O)(=O)c1cccc(-c2ccnc(C3CC(C(F)(F)C(F)(F)F)=NN3c3ccc(F)cc3F)c2)c1 (stereo not drawn) [Example 177, 1-(2,4-difluoro-phenyl)-5-[4-(3-methanesulfonyl-phenyl)-pyridin-2-yl]-3-pentafluoroethyl-4,5-dihydro-1H-pyrazole] | 57 | 7.59
